Experimental data as given in patent US6642365B1, “Anti-(retro)viral conjugates of saccharides and acetamidino or guanidino compounds” (Yeda Research and Development Co. Ltd., priority 2001, dated 2003).

What was measured:
TAR RNA [1] = test: Gel-shift binding to TAR RNA; set-up: species or system HIV-1; details: 50% binding; TAR RNA 2 nM
TAR RNA [2] = test: L-arginine-Amberlite affinity column elution of TAR RNA; format: binding, HIV-1; details: concentration that elutes 50% of TAR RNA from L-arginine-Amberlite affinity column
Method: (§1) The model Tat peptide (R52: […]) was prepared by the Weizmann Institute Chemical Services and was purified by reverse phase HPLC (C-18) (Lapidot et al., 1995). […] The RNA was transcriptionally labeled with α-^32P UTP, purified on a 12% polyacrylamide/7M urea gel (19:1 acrylamide:bis-acrylamide) and was eluted from the gel by 0.5M ammonium acetate, 10 mM magnesium acetate, 1 mM EDTA and 0.1% SDS. The sample was subjected to phenol extraction and the RNA was precipitated from 70% ethanol. Purified RNA was dissolved in diethyl pyrocarbonate-treated water (DEPC water), its concentration was determined by UV absorption at 260 nm and the specific radioactivity was determined by scintillation counting on a LS 1701 “Bruker” counter.
The L-arginine-Amberlite resin was prepared as follows: Carboxyl groups of Amberlite IRC-50 resin were covalently modified with ethanolamine using 1-(3-dimethylaminopropyl) 3-ethylcarbodiimide, a water-soluble coupler. The hydroxy ethyleneamide resin obtained was washed and dried, and L-arginine (12-16 μmols per ml of resin) was coupled to the hydroxy groups of the resin via an isourea moiety using a standard cyanogen bromide protocol. The final concentration of arginine residues was 12-16 μmol per ml of resin. The swollen L-arginino-Amberlite resin (200 μl) was packed into a plastic mini-column and equilibrated with buffer containing 40 mM Tris HCl, pH 7.5, 250 mM NaCl, 0.5 mM EDTA and 5 mM MgCl2 (buffer A). Approximately 1 ng of ^32P-UTP labeled TAR RNA in buffer A was loaded on the column. The column was eluted 3 to 5 times with 400 μl portions of buffer A, until no radioactivity was detected in the eluent. […] Each of the test compounds was dissolved in buffer A and passed through the column in 300 μl portions. Radioactivity of the eluates was determined by scintillation counting on a LS 1701 “Bruker” counter. CE50 values, the concentrations of inhibitors eluting 50% of the radioactive material from the column, were determined.

TAR RNA [3] = test: RNase A footprinting of TAR RNA; format: binding, HIV-1; details: 1 μM TAR, 200 pM RNase A
Method: In a typical experiment 10 μl of 5 mM cacodylate buffer pH 6.5, containing 25 mM KCl and 50-100 ng 5′ ^32P-labeled TAR RNA (approximately 0.5-1 μM) were incubated with 200 pM RNase A (Sigma) at room temperature for 10 minutes in the presence of Tat R52 and the conjugates of the invention at various concentrations. In the competition experiments, the mixture was supplemented with 0.5 μg yeast tRNA (Sigma). After the incubation, 10 μl of formamide/bromphenol blue loading buffer was added to the samples. The samples were heated to 80° C. for 2 min and were resolved by electrophoresis on 40 cm×0.8 mm 20% polyacrylamide denaturing gel (7M urea) for 3 hours at 55° C. The results were visualized by a phosphoimager as described above and quantitated using ImageQuant software.
TAR RNA and RNase A concentrations were established by co-titration. To produce a “single-hit” kinetics conditions, 1 μM TAR versus 200 pM RNase A were selected. Tat R52 and AAC concentrations were determined by titration. […] RNase A cleaved TAR RNA in an uneven manner (FIG. 4A., lane 2). The most susceptible regions for cleavage were the single-stranded loop, nucleotides U31-G34 as well as C24 and U25 of the bulge. Strong cleavage was also observed at G21-G41 and A20-U42 pairs (lower stem). Binding of R52 (2-4 μM) caused a weakening of the bands in the upper stem region, (G26-C39, A27-C38, as well as U40) (FIG. 4A., lanes 3, 4). At 4 μM R52, the cleavage at G34 (loop) was enhanced, as well as a certain enhancement of bands A20, G21, U23 and U25 was observed. Remarkably, the band corresponding to the R52-TAR complex still was observed on the gels even after electrophoresis under strongly denaturing conditions. In the presence of R4K (10-20 μM), the upper stem (G26-C29), the lower stem and the bulge (G21-U23, partially C24 and U25) were protected as well as C38, C39 and U40. Cleavage at C19 and A20 of the lower stem and C30, G33 and G34 of the loop was enhanced by 10 μM R4K, whereas with 20 μM R4K the protection of C30, G34 and A20-G21 was observed (FIG. 4A., lanes 5, 6). […] Cleavages at C19-A20 in the lower stem as well as at G30 and G34 in the loop were observed (FIG. 4A., lanes 7, 8). In the presence of GB4K (20 μM) no significant protection was observed.

TAR RNA [4] = test: Gel-shift binding to TAR RNA; set-up: species or system HIV-1; details: for CD50: 50% binding; for effect of ten-fold excess of yeast tRNA on complex formation with TAR: ten-fold excess of tRNA (100 ng per lane)
Method: as §1
To study the affinity of the test compounds to TAR, gel-shift and gel-shift inhibition experiments were performed. The binding reaction mixtures (20 μl) contained ^32P-labeled TAR (18-44) RNA oligonucleotide (3-6 nM) and Tat R52 peptide (35-75 nM) in a binding buffer (10 mM Tris-HCl pH 7.5, 70 mM NaCl, 0.2 mM EDTA and 5% glycerol). The reaction mixtures were incubated for 10 minutes on ice and resolved by electrophoresis on a 10% non-denaturing polyacrylamide gel (40:1 acrylamide:bis-acrylamide) at 200V, for 3 h at 4° C. Gels were dried and visualized by autoradiography. Quantitations were obtained by optical densitometry of films. Alternatively, results were visualized by exposing the wet gels to Fuji phosphoimager plates, which were read on a “Storm 820” (Molecular Dynamics) phosphoimager. […]
Binding of aminoglycoside-arginine conjugates (AAC) to TAR RNA was measured by adding varying concentrations of each conjugate to reaction mixtures (20 μl) which contained 12 nM ^32P-labeled TAR RNA. The reactions were analyzed as described above.

Sequence: YKKKRKKKKKA [Tat R52 peptide, Tat-derived model undeca peptide, containing a single arginine moiety at position 52 of native Tat protein, in the strand of lysines, reference compound]
- CD50 (TAR RNA [1]): 6 to 12 nM
- CE50 (TAR RNA [2]): 0.5 mM
- concentration giving effective protection of TAR (TAR RNA [3]): 2 µM
- CD50 (TAR RNA [4]; TAR RNA 6 nM): 35 nM
- CD50 (TAR RNA [4]; TAR RNA 12 nM): 75 nM
- CD50 (TAR RNA [4]; TAR RNA 20 nM): 200 nM
- effect of ten-fold excess of yeast tRNA on complex formation with TAR (TAR RNA [4]): do not inhibit the binding
- effect of ten-fold excess of yeast tRNA on complex formation with TAR (TAR RNA [4]; listed as R52): did not inhibit complex formation
